Measured values from ChEMBL document CHEMBL1125004, “Chemistry and pharmacology of the non-benzodiazepine anxiolytic enciprazine and related compounds” (1990).
The source made the active and inactive calls. The rule behind the calls is not given here.

Columns and labels:
[1] = Ratio of ED50 (hexobarbital) to that of ED50 (fighting); type: functional
[2] = species on record: Mus musculus; assay: Effect on hexobarbital induced sleep was determined in hexobarbital potentiation test; Range (9.6-17.1); type: functional
[3] = species on record: Mus musculus; assay: Ataxic activity in mice by rotarod test; Range (2.2-6.4); type: functional
[4] = Ratio of ED50 (rotarod) to that of ED50 (fighting); type: functional
[5] = tested on: Mus musculus; assay: Antiaggressive anxiolytic activity in the electroshock-induced fighting test in mice (po); Range (1.03-4.7;); type: functional
[6] = species on record: Mus musculus; assay: Effect on alcohol induced sleep was determined in ethanol potentiation test; Range (26.6-77.9); type: functional
[7] = tested on: Rattus norvegicus; assay: Antiaggressive anxiolytic activity in the hexagonal maze test in rat after ip administration of 0.3 mg/kg; type: functional; details: route intraperitoneal
[8] = tested on: Mus musculus; assay: Antiaggressive anxiolytic activity in the electroshock-induced fighting test in mice (po); Range (0.9-1.8); type: functional
[9] = tested on: Mus musculus; assay: Effect on hexobarbital induced sleep was determined in hexobarbital potentiation test (po); Range (36.0-59.6); type: functional
[10] = species on record: Mus musculus; assay: Ataxic activity in mice by rotarod test; Range (89.6-160.6); type: functional
[11] = species on record: Mus musculus; assay: Effect on hexobarbital induced sleep was determined in hexobarbital potentiation test; Range; type: functional
[12] = tested on: Mus musculus; assay: Antiaggressive anxiolytic activity in the electroshock-induced fighting test in mice (po); Range (10.32-18.72); type: functional
[13] = species on record: Mus musculus; assay: Ataxic activity in mice by rotarod test; Range (64.3-92.1); type: functional
[14] = Ratio of ED50 (ethanol) to that of ED50 (fighting); type: functional
[15] = species on record: Mus musculus; assay: Effect on alcohol induced sleep was determined in ethanol potentiation test; Range; type: functional
[16] = tested on: Rattus norvegicus; assay: Effect on tremor after oral administration of 50 mg/kg in rat was determined; '-' No effect; type: functional, organism-based; parameters: dose 50 mg/kg
[17] = tested on: Rattus norvegicus; assay: Effect on jumping after oral administration of 50 mg/kg in rat was determined; '-' No effect; type: functional, organism-based; parameters: dose 50 mg/kg
[18] = tested on: Rattus norvegicus; assay: Effect on restlessness after oral administration of 50 mg/kg in rat was determined; '-' No effect; type: functional, organism-based; parameters: dose 50 mg/kg
[19] = tested on: Rattus norvegicus; assay: Effect on salivation after oral administration of 100 mg/kg in rat was determined; '-' No effect; type: functional, organism-based; parameters: dose 100 mg/kg
[20] = tested on: Rattus norvegicus; assay: Effect on piloerection after oral administration of 50 mg/kg in rat was determined; '-' No effect; type: functional, organism-based; parameters: dose 50 mg/kg
[21] = tested on: Rattus norvegicus; assay: Effect on salivation after oral administration of 50 mg/kg in rat was determined; '-' No effect; type: functional, organism-based; parameters: dose 50 mg/kg
[22] = tested on: Rattus norvegicus; assay: Effect on diarrheal after oral administration of 50 mg/kg in rat was determined; '-' No effect; type: functional, organism-based; parameters: dose 50 mg/kg
[23] = tested on: Rattus norvegicus; assay: Effect on tremor after oral administration of 100 mg/kg in rat was determined; '-' No effect; type: functional, organism-based; parameters: dose 100 mg/kg
[24] = tested on: Rattus norvegicus; assay: Effect on piloerection after oral administration of 100 mg/kg in rat was determined; '-' No effect; type: functional, organism-based; parameters: dose 100 mg/kg
[25] = tested on: Rattus norvegicus; assay: Effect on diarrheal after oral administration of 100 mg/kg in rat was determined; '-' No effect; type: functional, organism-based; parameters: dose 100 mg/kg
[26] = tested on: Rattus norvegicus; assay: Effect on jumping after oral administration of 100 mg/kg in rat was determined; '-' No effect; type: functional, organism-based; parameters: dose 100 mg/kg
[27] = tested on: Rattus norvegicus; assay: Effect on restlessness after oral administration of 100 mg/kg in rat was determined; '-' No effect; type: functional, organism-based; parameters: dose 100 mg/kg
[28] = species on record: Mus musculus; assay: animal or person
Description: Ataxic activity in mice by rotarod test; Range (2.99-5.35)

[29] = tested on: Rattus norvegicus; assay: Effect on jumping after oral administration of 10 mg/kg in rat was determined; '-' No effect; type: functional, organism-based; parameters: dose 10 mg/kg
[30] = tested on: Rattus norvegicus; assay: Effect on piloerection after oral administration of 10 mg/kg in rat was determined; '+' weak effect; type: functional, organism-based; parameters: dose 10 mg/kg
[31] = species on record: Mus musculus; assay: animal or person; remark: listed apart in the source
Description: Effect on alcohol induced sleep was determined in ethanol potentiation test; Range (0.41-1.79)

[32] = tested on: Rattus norvegicus; assay: Effect on tremor after oral administration of 20 mg/kg in rat was determined; +' weak effect; type: functional, organism-based; parameters: dose 20 mg/kg
[33] = tested on: Rattus norvegicus; assay: Effect on diarrhea after oral administration of 20 mg/kg in rat was determined; '++' strong effect; type: functional, organism-based; parameters: dose 20 mg/kg
[34] = tested on: Rattus norvegicus; assay: Effect on diarrhea after oral administration of 10 mg/kg in rat was determined; '+' weak effect; type: functional, organism-based; parameters: dose 10 mg/kg
[35] = tested on: Rattus norvegicus; assay: Effect on restlessness after oral administration of 20 mg/kg in rat was determined; +' weak effect; type: functional, organism-based; parameters: dose 20 mg/kg
[36] = tested on: Rattus norvegicus; assay: Effect on salivation after oral administration of 20 mg/kg in rat was determined; +' weak effect; type: functional, organism-based; parameters: dose 20 mg/kg
[37] = tested on: Rattus norvegicus; assay: Effect on restlessness after oral administration of 10 mg/kg in rat was determined; '+' weak effect; type: functional, organism-based; parameters: dose 10 mg/kg
[38] = species on record: Mus musculus; assay: animal or person; remark: listed apart in the source
[39] = tested on: Rattus norvegicus; assay: Effect on salivation after oral administration of 10 mg/kg in rat was determined; '-' No effect; type: functional, organism-based; parameters: dose 10 mg/kg
[40] = tested on: Rattus norvegicus; assay: Effect on jumping after oral administration of 20 mg/kg in rat was determined; +' weak effect; type: functional, organism-based; parameters: dose 20 mg/kg
[41] = tested on: Rattus norvegicus; assay: Effect on tremor after oral administration of 10 mg/kg in rat was determined; '-' No effect; type: functional, organism-based; parameters: dose 10 mg/kg
[42] = tested on: Rattus norvegicus; assay: Effect on piloerection after oral administration of 20 mg/kg in rat was determined; '++' strong effect; type: functional, organism-based; parameters: dose 20 mg/kg
[43] = species on record: Mus musculus; assay: animal or person; details: po
[44] = tested on: Monkey; assay: Tested for ability to maintain self-administration after administration of 0.003 mg/kg in monkey 3017 Range (1-2); type: functional, Cercopithecidae
[45] = tested on: Monkey; assay: Tested for ability to maintain self-administration after administration of 0.3 mg/kg in monkey 3038 (1-2); type: functional, Cercopithecidae
[46] = tested on: Monkey; assay: Tested for ability to maintain self-administration after administration of 0.003 mg/kg in monkey 2037 Range (2-6); type: functional, Cercopithecidae
[47] = tested on: Monkey; assay: Tested for ability to maintain self-administration after administration of 0.03 mg/kg in monkey 3038 Range (1-10); type: functional, Cercopithecidae
[48] = tested on: Monkey; assay: Tested for ability to maintain self-administration after administration of 0.03 mg/kg in monkey 3017 Range (1-7); type: functional, Cercopithecidae
[49] = tested on: Monkey; assay: Tested for ability to maintain self-administration after administration of 0.003 mg/kg in monkey 9079 Range (1-6); type: functional, Cercopithecidae
[50] = tested on: Monkey; assay: Tested for ability to maintain self-administration after administration of 1 mg/kg in monkey 9079 (0-3); type: functional, Cercopithecidae
[51] = tested on: Monkey; assay: Tested for ability to maintain self-administration after administration of 0.003 mg/kg in monkey 3038 Range (1-7); type: functional, Cercopithecidae
[52] = tested on: Monkey; assay: Tested for ability to maintain self-administration after administration of 0.3 mg/kg in monkey 2036 (1-5); type: functional, Cercopithecidae
[53] = tested on: Monkey; assay: Tested for ability to maintain self-administration after administration of 0.03 mg/kg in monkey 2037 Range (7-9); type: functional, Cercopithecidae
[54] = tested on: Monkey; assay: Tested for ability to maintain self-administration after administration of 0.001 mg/kg in monkey 3038 Range (2-5); type: functional, Cercopithecidae
[55] = tested on: Monkey; assay: Tested for ability to maintain self-administration after administration of 0.3 mg/kg in monkey 3017 (0-1); type: functional, Cercopithecidae
[56] = tested on: Monkey; assay: Tested for ability to maintain self-administration after administration of 0.003 mg/kg in monkey 9083 Range (13-21); type: functional, Cercopithecidae
[57] = tested on: Monkey; assay: Tested for ability to maintain self-administration after administration of 0.3 mg/kg in monkey 9079 (0-2); type: functional, Cercopithecidae
[58] = tested on: Monkey; assay: Tested for ability to maintain self-administration after administration of 0.003 mg/kg in monkey 2036 Range (5-9); type: functional, Cercopithecidae
[59] = tested on: Monkey; assay: Tested for ability to maintain self-administration after administration of 0.03 mg/kg in monkey 9079 Range (2-24); type: functional, Cercopithecidae
[60] = tested on: Monkey; assay: Tested for ability to maintain self-administration after administration of 0.03 mg/kg in monkey 2036 Range (2-3); type: functional, Cercopithecidae
[61] = tested on: Monkey; assay: Tested for ability to maintain self-administration after administration of 0.3 mg/kg in monkey 2037 (0-4); type: functional, Cercopithecidae
[62] = tested on: Monkey; assay: Tested for ability to maintain self-administration after administration of 0.03 mg/kg in monkey 9083 Range (7-11); type: functional, Cercopithecidae
[63] = tested on: Monkey; assay: Tested for ability to maintain self-administration after administration of 0.01 mg/kg in monkey 9079 Range (1-3); type: functional, Cercopithecidae
[64] = tested on: Monkey; assay: Tested for ability to maintain self-administration after administration of 0.3 mg/kg in monkey 9083 (1-4); type: functional, Cercopithecidae

SMILES: CN1C(=O)CC(=O)N(c2ccccc2)c2cc(Cl)ccc21 [CLOBAZAM]
- Therapeutic index [1]: 5.6
- ED50 [2]: 13.2 mg/kg
- ED50 [3]: 4.1 mg/kg
- Therapeutic index [4]: 1.8
- ED50 [5]: 2.35 mg/kg

SMILES: COc1ccccc1N1CCN(CC(O)COc2cc(OC)c(OC)c(OC)c2)CC1.Cl (configuration not stated)
- ED50 [6]: 45.5 mg/kg
- Prolongation [7]: 3.2%
- ED50 [8]: 1.4 mg/kg
- ED50 [9]: 46.4 mg/kg
- ED50 [10]: 120 mg/kg

SMILES: O=C1CC2(CCCC2)CC(=O)N1CCCCN1CCN(c2ncccn2)CC1 [BUSPIRONE]
- ED50 [11]: 54.5 mg/kg
- ED50 [12]: 14.5 mg/kg
- ED50 [13]: 77 mg/kg
- Therapeutic index [1]: 0.7
- Therapeutic index [14]: 0.8
- ED50 [15]: 62.8 mg/kg
- Therapeutic index [4]: 5.3

SMILES: COc1ccccc1N1CCN(CC(O)COc2cc(OC)c(OC)c(OC)c2)CC1 (configuration not stated)
- Effect [16]: inactive
- Effect [17]: inactive
- Effect [18]: inactive
- Effect [19]: inactive
- Effect [20]: inactive
- Effect [21]: inactive
- Effect [22]: inactive
- Therapeutic index [1]: 33
- Therapeutic index [14]: 32.5
- Effect [23]: inactive
- Effect [24]: inactive
- Effect [25]: inactive
- Effect [26]: inactive
- Therapeutic index [4]: 86
- Effect [27]: inactive

SMILES: CN1C(=O)CN=C(c2ccccc2)c2cc(Cl)ccc21 [DIAZEPAM]
- ED50 [28]: 4 mg/kg
- Effect [29]: inactive
- Effect [30]: Partially active
- ED50 [31]: 0.85 mg/kg
- Effect [32]: Partially active
- Effect [33]: Active
- Effect [34]: Partially active
- Effect [35]: Partially active
- Therapeutic index [1]: 2.1
- Effect [36]: Partially active
- Effect [37]: Partially active
- ED50 [38]: 3 mg/kg
- Therapeutic index [14]: 0.6
- Effect [39]: inactive
- Effect [40]: Partially active
- Effect [41]: inactive
- Therapeutic index [4]: 2.9
- Effect [42]: Active
- ED50 [43]: 1.4 mg/kg

SMILES: COc1ccccc1N1CCN(CC(O)COc2cc(OC)c(OC)c(OC)c2)CC1 (configuration not stated) [ENCIPRAZINE]
- Effect [44]: 1.7
- Effect [45]: 1.3
- Effect [46]: 4.3
- Effect [47]: 4.3
- Effect [48]: 4.3
- Effect [49]: 3
- Effect [50]: 1.3
- Effect [51]: 4
- Effect [52]: 3
- Effect [53]: 7.7
- Effect [54]: 3.5
- Effect [55]: 0.3
- Effect [56]: 17.7
- Effect [57]: 1
- Effect [58]: 7
- Effect [59]: 13.7
- Effect [60]: 2.3
- Effect [61]: 2
- Effect [62]: 9
- Effect [63]: 2
- Effect [64]: 2.7
